According to article PMC5711939, “The rumen microbiome: an underexplored resource for novel antimicrobial discovery” (NPJ Biofilms and Microbiomes, 2017):
Ends that are not written are not given here.

Tested on: MRSA USA300 cells
Experiment: Transmission electron microscopy of treated cells
Type: cell-based, Staphylococcus aureus
Settings: 3× MIC for 1 h
Source text: Effects of AMPs on bacterial cell morphology was investigated using transmission electron microscopy as described by Huws et al.[49] […] Cells were post-fixed with 1% osmium tetroxide (w/v), stained with 2% (w/v) uranyl acetate and Reynold’s lead citrate and observed using a JEOL JEM1010 transmission electron microscope (JEOL Ltd, Tokyo, Japan) at 80 kV.

HLRRINKLLTRIGLYRHAFG-NH2 [Lynronne-2]
Changes in cell morphology (TEM): very little morphology changes
